Experimental data taken from paper PMC11436757, “BRCA2 stabilises RAD51 and DMC1 nucleoprotein filaments through a conserved interaction mode” (Nature Communications, 2024).
Entries after “also recorded” stand apart in the source; their conditions may differ. No end group written: not given here.

Key:
DMC1-ssDNA filaments [1] = experiment: EMSA, super-shift of DMC1-ssDNA filaments (TEA pH 7.5 + KCl); type: biochemical, human
Excerpt: (§1) What is the function of the BRCA2 Ex14-DMC1 interaction? We used electrophoretic mobility shift assays (EMSAs) to determine the impact of BRCA2-binding on DMC1 nucleoprotein filaments. We used two different conditions for nucleoprotein filament assembly. Firstly, a TAE (tris, acetate, EDTA; pH 7.5) buffer that was previously used for RAD51-ssDNA filaments, in which DMC1-ssDNA filaments were partially formed at the canonical ratio of three nucleotides to one protomer (Fig. 3a). Secondly, a TEA (triethanolamine; pH 7.5) + KCl buffer based on previous DMC1 studies[36]–[38], in which DMC1-ssDNA filament formation was more complete at the canonical ratio (Fig. 3b). […] This was noticeable using Ex14 in equimolar amounts (11 μM), and became substantial at a 5-fold stoichiometric excess (55 μM) (Fig. 3b). As the KD of the DMC1-Ex14 interaction is approximately 30 μM (Fig. 2a), the requirement for a stoichiometric excess is likely due to binding being favoured at Ex14 concentrations above the KD.
(§2) To form nucleoprotein filaments, DMC1 and RAD51 was incubated with fluorescent 100-base ssDNA (5’-FAM- […]-3’) at the concentrations indicated in the figures for 30 minutes at 4 °C in reaction buffer. For DMC1, reaction buffer is 25 mM TEA (triethanolamine) pH 7.5, 1 mM ATP, 2 mM MgCl2, 0.1 mg/ml BSA, 2 mM DTT, 200 mM KCl. For RAD51, reaction buffer is 50 mM TEA (triethanolamine), 2 mM ATP, 0.5 mM MgCl2, 2 mM DTT. For assays requiring incomplete nucleoprotein filament assembly, the reaction buffer consisted of 50 mM TAE (tris, acetate, EDTA) pH 7.5, 2 mM ATP, 2 mM MgCl2, 2 mM DTT. In nucleoprotein formation stimulation assays or supershift experiments, BRCA2Ex14 or BRCA2Ex14-AAA were added for a further 30 min at 4 °C. […] Glycerol was added at a final concentration of 3%, and samples were analysed by electrophoresis on a 1% (w/v) (for DMC1) or 0.66% (w/v) (for RAD51) agarose gel in 0.5x TAE pH 8.0 at 20–40 V for ~4 h at 4 °C. DNA was detected by FAM using a Typhoon^TM FLA 9500 (GE Healthcare), with 473 nm laser at excitation wavelength 490 nm and emission wavelength 520 nm, using the LPB filter and a PMT voltage of 500 V. To analyse RAD51 nucleoprotein filaments assembled upon 100-base poly(dT) ssDNA, gels were stained post-run using SYBR^TM Gold Nucleic Acid Gel Stain (Invitrogen) and detected using a Typhoon^TM FLA 9500 (GE Healthcare).

DMC1 = details: ref [21],[27],[32]; cited from earlier work
Excerpt: The PhePP-binding site of DMC1 is formed by two loops, corresponding to amino-acids 147-153 and 178-183, respectively. The first loop consists of amino-acids 147-GAGGYPG-153 in DMC1 and 148-IDRGGGE-154 in RAD51 (herein referred to as PhePP-binding loop A; Fig. 1d), and is one of the most divergent regions between DMC1 and RAD51 (Supplementary Fig. 4). The second loop consists of amino-acids 178-NVDHDA-183 in DMC1 and 179-GLSGSD-184 in RAD51 (herein referred to as PhePP-binding loop B; Fig. 1e), in which residues V179 (DMC1) and L180 (RAD51) substantially contribute to the PhePP-binding pocket. ...

DMC1-ssDNA filaments [2] = experiment: EMSA, stimulation of DMC1-ssDNA filament formation (TAE pH 7.5); type: biochemical, human; details: TAE pH 7.5
Excerpt: as §1, §2

RAD51 = details: cited from earlier work
Excerpt: BRCA2 interacts with RAD51 and DMC1 recombinases through BRC repeats and PhePP motifs (Fig. 1a)[21],[25]–[28]. The eight BRC repeats, located within BRCA2’s central exon 11 region, bind to RAD51 and DMC1 with various affinities[25],[29],[30]. […] The first loop consists of amino-acids 147-GAGGYPG-153 in DMC1 and 148-IDRGGGE-154 in RAD51 (herein referred to as PhePP-binding loop A; Fig. 1d), and is one of the most divergent regions between DMC1 and RAD51 (Supplementary Fig. 4). The second loop consists of amino-acids 178-NVDHDA-183 in DMC1 and 179-GLSGSD-184 in RAD51 (herein referred to as PhePP-binding loop B; Fig. 1e), in which residues V179 (DMC1) and L180 (RAD51) substantially contribute to the PhePP-binding pocket. ...

[3] = system: RAD51-ssDNA (polydT) filaments; experiment: EMSA, protection of RAD51-ssDNA (polydT) filaments from BRC4-mediated disruption; type: biochemical
Protocol: as §2

[4] = system: RAD51 L180E-ssDNA (polydT) filaments; experiment: EMSA, protection of RAD51 L180E-ssDNA (polydT) filaments from BRC4-mediated disruption; type: biochemical; details: 100-nt polydT
Protocol: as §2

RAD51-ssDNA filaments = details: ref [33],[34]; cited from earlier work
Excerpt: BRCA2 interacts with RAD51 and DMC1 recombinases through BRC repeats and PhePP motifs (Fig. 1a)[21],[25]–[28]. The eight BRC repeats, located within BRCA2’s central exon 11 region, bind to RAD51 and DMC1 with various affinities[25],[29],[30].

Substance | super-shift of pre-formed DMC1-ssDNA filaments (DMC1-ssDNA filaments [1]; 5-fold stoichiometric excess (55 μM)) | super-shift of pre-formed DMC1-ssDNA filaments (DMC1-ssDNA filaments [1]; 100-nt random ssDNA, 4 °C) | super-shift of pre-formed DMC1-ssDNA filaments (DMC1-ssDNA filaments [1]; equimolar (11 μM)) | selective binding to DMC1 (DMC1) | stimulation of DMC1-ssDNA filament formation upon changing order of addition (DMC1-ssDNA filaments [2]; Ex14 added after DMC1-ssDNA, with DMC1 prior to ssDNA, or with ssDNA prior to DMC1) | stimulation of DMC1-ssDNA nucleoprotein filament formation (DMC1-ssDNA filaments [2]; 100-nt random ssDNA, 4 °C, canonical ratio of three nucleotides to one protomer, equimolar for Ex14) | selective binding to RAD51 (RAD51; ref [21],[27],[32]) | binding to RAD51 filaments versus monomers (RAD51; ref [33],[34]) | protection of RAD51-ssDNA (polydT) filaments from BRC4-mediated disruption ([3]; 3-fold excess of Ex27 (33 μM), 10-fold excess of BRC4) | protection of RAD51-ssDNA (polydT) filaments from BRC4-mediated disruption ([3]; 100-nt polydT, 10-fold excess of Ex27) | protection of RAD51-ssDNA filaments from BRC4-mediated disruption ([3]; equimolar Ex27 (11 µM), 10-fold excess of BRC4) | protection of RAD51 L180E-ssDNA (polydT) filaments from BRC4-mediated disruption [4] | protection of nucleoprotein filaments from BRC-mediated disruption (RAD51-ssDNA filaments)
ATRNEKMRHLITTGRPTKVFVPPFKTKSHFHRVE [Ex14] | substantial | inducing a super-shift; also recorded: induced a super-shift | noticeable | bind selectively to DMC1 | same degree; also recorded: same stimulation; also recorded: order of addition did not affect | stimulates DMC1-ssDNA nucleoprotein filament assembly, achieving complete DMC1-ssDNA filament formation; also recorded: promoted the formation of DMC1-ssDNA filaments | – | – | – | – | – | – | –
Ex27: BRCA2 exon 27 PhePP peptide, amino acids 3270-3315 (ALDFLSRLPLPPPVSPICTFVSPAAQKAFQPPRSCGTKYETPIKKK; UniProt P51587 3270-3315, looked up, fragment) | – | – | – | – | – | – | bind selectively to DMC1 and RAD51, respectively | binds to RAD51 filaments, rather than monomers | some protection; also recorded: protection at a 3-fold excess | protects; also recorded: full protection; also recorded: complete protection | no protection | not protected; also recorded: almost entirely lost; also recorded: abrogated | protects nucleoprotein filaments from BRC-mediated disruption
